The values that follow come from publication PMC8777764, “Design, Synthesis, Biological Evaluation, and Molecular Modeling of 2-Difluoromethylbenzimidazole Derivatives as Potential PI3Kα Inhibitors” (Molecules, 2022).

One may read the IC50 as the concentration at which inhibition is half-maximal.

The structures appear in SMILES notation.

This assay addresses T1, PI3Kα (Homo sapiens, UniProt P42336).
T1 construct: gene PIK3CA
The experiment in a line: Kinase-Glo Plus luminescence kinase assay, […] ATP. Type of assay: biochemical. Background: Kinase-Glo measures the ATP left after a reaction by luminescence.

T1 sequence (P42336 whole entry): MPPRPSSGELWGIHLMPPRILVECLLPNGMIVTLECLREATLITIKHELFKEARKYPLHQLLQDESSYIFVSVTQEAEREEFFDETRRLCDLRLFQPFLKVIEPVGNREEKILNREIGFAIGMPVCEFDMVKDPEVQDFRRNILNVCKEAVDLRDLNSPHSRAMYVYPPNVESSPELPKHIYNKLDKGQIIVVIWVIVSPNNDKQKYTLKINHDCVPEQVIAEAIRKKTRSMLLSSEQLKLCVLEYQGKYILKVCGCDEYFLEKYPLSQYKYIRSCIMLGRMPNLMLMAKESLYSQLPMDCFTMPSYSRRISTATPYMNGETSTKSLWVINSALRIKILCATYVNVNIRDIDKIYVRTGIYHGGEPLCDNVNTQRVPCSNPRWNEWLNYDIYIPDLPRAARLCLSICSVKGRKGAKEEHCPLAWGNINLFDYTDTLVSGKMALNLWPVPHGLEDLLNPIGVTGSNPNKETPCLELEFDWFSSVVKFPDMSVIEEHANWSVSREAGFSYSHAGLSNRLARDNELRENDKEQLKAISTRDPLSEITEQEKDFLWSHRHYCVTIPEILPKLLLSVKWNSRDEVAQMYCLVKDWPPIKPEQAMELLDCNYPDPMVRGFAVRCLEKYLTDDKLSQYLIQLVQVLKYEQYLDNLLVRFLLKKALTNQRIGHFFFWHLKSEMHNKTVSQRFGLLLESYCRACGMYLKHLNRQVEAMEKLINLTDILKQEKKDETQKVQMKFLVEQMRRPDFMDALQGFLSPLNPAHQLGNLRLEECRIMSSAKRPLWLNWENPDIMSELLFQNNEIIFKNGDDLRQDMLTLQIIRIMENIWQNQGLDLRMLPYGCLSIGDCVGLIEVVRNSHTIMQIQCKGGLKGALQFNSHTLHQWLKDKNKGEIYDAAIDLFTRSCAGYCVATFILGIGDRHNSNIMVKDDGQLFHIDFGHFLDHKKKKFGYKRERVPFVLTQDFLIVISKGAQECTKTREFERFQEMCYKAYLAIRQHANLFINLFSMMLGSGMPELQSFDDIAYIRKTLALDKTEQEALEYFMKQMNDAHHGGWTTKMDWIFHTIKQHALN

Take `CCOc1cccc2c1nc(C(F)(F)F)n2-c1nc(N2CCOCC2)nc(N(C)C2CCN(S(C)(=O)=O)CC2)n1` [compound 87, 4-(4-Ethoxy-2-(trifluoromethyl)-1H-benzo[d]imidazol-1-yl)-N-methyl-N-(1-(methylsulfonyl)piperidin-4-yl)-6-morpholino-1,3,5-triazin-2-amine]: the IC50 is 33.6 ± 2.7 nM.

Regarding `COc1cccc2c1nc(C(F)(F)F)n2-c1nc(N2CCOCC2)nc(N(C)C2CCN(S(C)(=O)=O)CC2)n1` [compound 86, 4-(4-Methoxy-2-(trifluoromethyl)-1H-benzo[d]imidazol-1-yl)-N-methyl-N-(1-(methylsulfonyl)piperidin-4-yl)-6-morpholino-1,3,5-triazin-2-amine], the IC50 turned out to be 22.8 ± 0.4 nM.
